pIC50: −log10 of the molar value.
Legend:
[1] = target: HIS-KRAS(G12C) (Homo sapiens (Human), UniProt P01116, G12C); test: SOS1 catalyzed nucleotide exchange assay (TR-FRET); assay type: biochemical; conditions: GDP-loaded HIS-KRAS(G12C), 1 hour pre-incubation, TR-FRET
Method: TR-FRET signals were then read on Tecan Spark multimode microplate reader. […] TR-FRET ratios for each individual wells were calculated by equation: TR-FRET ratio=(Signal F515/Signal F486)*10000. Then the data were analyzed using a 4-parameter logistic model to calculate IC50 values.

[2] = system: NCI-H358 cells expressing KRAS G12C mutant protein; test: Phospho-ERK1/2(THR202/TYR204) HTRF assay; assay type: cell-based; conditions: Homo sapiens, NCI-H358, 2 h, 2 hours incubation, read-out: p-ERK IC50
Method: The NCI-H358 cells in culture medium were seeded in 96-well plates at a concentration of 40,000 cells/well and then put in a 37° C./5% CO2 cell incubator to incubate overnight. […] After 2 hours incubation in a 37° C./5% CO2 cell incubator, the assay medium in 96-well plates was removed, then 50 μL of 1× blocking reagent-supplemented lysis buffer (Cisbio) was added and the plates were incubated at 25° C. for 45 min with shaking. 10 μL of cell lysates from the 96-well plates were transferred to a 384-well plate (Greiner) containing 2.5 μL/well HTRF® pre-mixed antibodies (Cisbio 64AERPEH). Incubate 4 hours at 25° C. and then read HTRF signals on Tecan Spark multimode microplate reader. The data were analyzed using a 4-parameter logistic model to calculate IC50 values.

[3] = Mouse pharmacokinetic study; assay type: in vivo, Balb/c mouse
Method: The purpose of this study was to evaluate the pharmacokinetic properties of compounds in Balb/c mouse (♀) following single dose administration. The day before administration, mice were fasted overnight and free access to water. Six mice were needed for each compound and the six mice were divided into two groups (n=3/group), group A and group B. Mice in group A were treated with a single 3 mg/kg dose of compound (iv). Mice in group B were treated with a single 10 mg/kg dose of compound (po). For each mouse in group A, blood samples were collected at pre-dose, and at the time point of 0.083, 0.25, 0.5, 1, 2, 4, 6, 8 and 24 h post-dose. For each mouse in group B, blood samples were collected at pre-dose, and at the time point of 0.25, 0.5, 1, 2, 3, 4, 6, 8 and 24 h post-dose. Blood samples were placed on ice until centrifugation to obtain plasma samples. The plasma samples were stored at −80° C. until analysis. The concentration of compound in plasma samples was determined using a LC-MS/MS method.

HIS-KRAS(G12C), sequence (P01116 other isoform, or with tags, fused parts or gaps G12C): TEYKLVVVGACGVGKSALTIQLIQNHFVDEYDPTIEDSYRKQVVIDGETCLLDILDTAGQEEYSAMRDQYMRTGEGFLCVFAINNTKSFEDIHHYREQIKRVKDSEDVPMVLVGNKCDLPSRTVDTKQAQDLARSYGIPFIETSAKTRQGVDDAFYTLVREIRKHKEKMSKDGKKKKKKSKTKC

| Structure (SMILES) | pIC50 [1] | pIC50 [2] | Pharmacokinetic properties in words ([3]; mouse model, 3 mg/kg iv and 10 mg/kg po) | clearance ([3]; plasma, Balb/c mouse (female), 3 mg/kg, iv) [mL/min/kg] | Vd ([3]; plasma, Balb/c mouse (female), 3 mg/kg, iv, read-out: Vss) [L/kg] | AUC(0-t) ([3]; plasma, Balb/c mouse (female), 10 mg/kg, po, read-out: AUC0-24 h) [ng·h/mL] | Cmax ([3]; plasma, Balb/c mouse (female), 10 mg/kg, po, read-out: Cmax) [ng/mL] | bioavailability ([3]; plasma, Balb/c mouse (female), 10 mg/kg, po, read-out: Oral BA (F %)) [%] |
| --- | --- | --- | --- | --- | --- | --- | --- | --- |
| C=CC(=O)N1CCN(c2nc(=O)n(-c3c(C)ccnc3C(C)C)c3nc(-c4c(N)c(F)c(F)c(F)c4F)c(F)cc23)[C@@H](C)C1 [Compound 2, 4-((S)-4-acryloyl-2-methylpiperazin-1-yl)-7-(2-amino-3,4,5,6-tetrafluorophenyl)-6-fluoro-1-(2-isopropyl-4-methylpyridin-3-yl)pyrido[2,3-d]pyrimidin-2(1H)-one] | 8.69 | 7.51 | good pharmacokinetic properties | 65.2 | 2.31 | 1150 | 1440 | 44.7 |
| C=CC(=O)N1CCN(c2nc(=O)n(-c3c(C)ccnc3C(C)C)c3nc(-c4c(N)c(F)c(F)c(F)c4F)c(F)cc23)C[C@H]1C (single isomer, unassigned) [Compound 4-1] | 8.48 | 7.39 | – | – | – | – | – | – |
| C=CC(=O)N1CCN(c2nc(=O)n(-c3c(C)ccnc3C(C)C)c3nc(-c4c(N)c(F)c(F)c(F)c4F)c(F)cc23)CC1 (single isomer, unassigned) [Compound 3-1, 4-(4-acryloylpiperazin-1-yl)-7-(2-amino-3,4,5,6-tetrafluorophenyl)-6-fluoro-1-(2-isopropyl-4-methylpyridin-3-yl)pyrido[2,3-d]pyrimidin-2(1H)-one] | 8.50 | 7.60 | – | – | – | – | – | – |
| C=CC(=O)N1[C@H](C)CN(c2nc(=O)n(-c3c(C)ccnc3C(C)C)c3nc(-c4c(F)c(F)c(F)c(N)c4Cl)c(F)cc23)C[C@@H]1C (single isomer, unassigned) [Compound 7-1] | 8.18 | 7.44 | – | – | – | – | – | – |

From patent US11345701B1, “KRAS mutant protein inhibitors” (Jacobio Pharmaceuticals Co., Ltd., priority 2021, dated 2022)
